Format in all cases: functional, cell-based
In assay [1] the test system is PSN1. In words: Antiproliferative activity against human PSN1 cells after 72 hrs by WST8 assay. The following applies: PSN1, 72 h. For orientation: Formazan colour is commonly taken as a measure of viable cells.
For assay [2], the system named is MDA-MB-231. In words: Antiproliferative activity against human MDA-MB-231 cells after 72 hrs by WST8 assay. The following applies: MDA-MB-231, 72 h.
Assay [3] has as its system A549. In words: Antiproliferative activity against human A549 cells after 72 hrs by WST8 assay. The following applies: A549, 72 h.
The nature of assay [4]: Antiproliferative activity against human TIG3 cells after 72 hrs by WST8 assay. Particulars: TIG-3, 72 h.
Assay [5] in a line: Antiproliferative activity against human PANC1 cells after 72 hrs by WST8 assay. Particulars: PANC-1, 72 h.

Turning to `C=C[C@]1(C)C=C2CC[C@H]3C(C)(C)[C@H](O)C[C@H](O)[C@]3(C)[C@H]2CC1`, the concentration for half-maximal inhibition (IC50) (usually the concentration that inhibits the measured activity by half) in assay [1] is 12.3 µM.

As to `O=c1[nH]cc(F)c(=O)[nH]1` [FLUOROURACIL], the IC50 in assay [2] is 5.2 µM; in assay [3] it was 2.8 µM; in assay [4], 8.4 µM; in assay [1] it was 4.4 µM; in assay [5], 3.7 µM.

The values above are taken from ChEMBL document CHEMBL3580563, “Kaempulchraols A-H, Diterpenoids from the Rhizomes of Kaempferia pulchra Collected in Myanmar” (J Nat Prod, 2015).
